Results from US11154058B2, “Fungicidal compositions” (SYNGENTA PARTICIPATIONS AG, priority 2017, dated 2021).

What was measured:
[1] = system: Blumeria graminis f. Sp. Tritici (Erysiphe graminis f. Sp. Tritici); assay: Blumeria graminis f. sp. tritici / wheat / leaf disc preventative (powdery mildew on wheat); format: in vivo; settings: foliar, compared to untreated control, read-out: disease control
Description: Blumeria graminis f. Sp. Tritici (Erysiphe graminis f. Sp. Tritici)/Wheat/Leaf Disc Preventative (Powdery Mildew on Wheat)
Wheat leaf segments cv. Kanzler were placed on agar in a multiwell plate (24-well format) and sprayed with the formulated test compound or mixture composition diluted in water. The leaf disks were inoculated by shaking powdery mildew infected plants above the test plates 1 day after application. The inoculated leaf disks were incubated at 20° C. and 60% rh under a light regime of 24 h darkness followed by 12 h light/12 h darkness in a climate chamber and the activity of a compound or mixture composition was assessed as percent disease control compared to untreated when an appropriate level of disease damage appears on untreated check leaf segments (6-8 days after application).

[2] = system: Puccinia recondita f. Sp. Tritici; assay: Puccinia recondita f. sp. tritici / wheat / leaf disc curative (brown rust); format: in vivo; settings: foliar, compared to untreated control, read-out: disease control
Description: Puccinia recondita f. Sp. Tritici/Wheat/Leaf Disc Curative (Brown Rust)
Wheat leaf segments cv. Kanzler are placed on agar in multiwell plates (24-well format). The leaf segments are inoculated with a spore suspension of the fungus. Plates were stored in darkness at 19° C. and 75% rh. The formulated test compound or mixture composition diluted in water was applied 1 day after inoculation. The leaf segments were incubated at 19° C. and 75% rh under a light regime of 12 h light/12 h darkness in a climate cabinet and the activity of a compound or mixture composition was assessed as percent disease control compared to untreated when an appropriate level of disease damage appears in untreated check leaf segments (6-8 days after application).

[3] = system: Puccinia recondita f. Sp. Tritici; assay: Puccinia recondita f. sp. tritici / wheat / leaf disc preventative (brown rust); format: in vivo; settings: foliar, compared to untreated control, read-out: disease control
Description: Puccinia recondita f. Sp. Tritici/Wheat/Leaf Disc Preventative (Brown Rust) Wheat leaf segments cv. Kanzler were placed on agar in multiwell plates (24-well format) and sprayed with the formulated test compound or mixture composition diluted in water. The leaf disks were inoculated with a spore suspension of the fungus 1 day after application. The inoculated leaf segments were incubated at 19° C. and 75% rh under a light regime of 12 h light/12 h darkness in a climate cabinet and the activity of a compound or mixture composition was assessed as percent disease control compared to untreated when an appropriate level of disease damage appears in untreated check leaf segments (7-9 days after application).

Phakopsora pachyrhizi = Phakopsora pachyrhizi / soybean / preventative (soybean rust); format: in vivo; settings: foliar, soybean leaf disc, compared to untreated control
Description: Phakopsora pachyrhizi/Soybean/Preventative (Soybean Rust) Soybean leaf disks are placed on water agar in multiwell plates (24-well format) and sprayed with the formulated test compound diluted in water. One day after application leaf discs are inoculated by spraying a spore suspension on the lower leaf surface. After an incubation period in a climate cabinet of 24-36 hours in darkness at 20° C. and 75% rh leaf disc are kept at 20° C. with 12 h light/day and 75% rh. The activity of a compound is assessed as percent disease control compared to untreated when an appropriate level of disease damage appears in untreated check leaf disks (12-14 days after application).

Row | SMILES | melting point [°C] | pest or weed control at 200 ppm [1] [%] | pest or weed control at 200 ppm [2] [%] | pest or weed control at 200 ppm [3] [%] | pest or weed control at 200 ppm (Phakopsora pachyrhizi) [%]
1 | CCO/N=C(\C)CC(O)(c1cc(C)c(/N=C/N(C)CC)cc1OC)C(F)(F)F (centres unmarked) [Q.001, N′-[4-[(3E)-3-ethoxyimino-1-hydroxy-1-(trifluoromethyl)butyl]-5-methoxy-2-methyl-phenyl]-N-ethyl-N-methyl-formamidine] | – | ≥ 80 | ≥ 80 | ≥ 80 | ≥ 80
2 | CCCCOCC(O)(c1cc(C)c(/N=C/N(C)CC)cc1OC)C(F)(F)F (centres unmarked) [Q.002, N′-[4-[1-(butoxymethyl)-2,2,2-trifluoro-1-hydroxy-ethyl]-5-methoxy-2-methyl-phenyl]-N-ethyl-N-methyl-formamidine] | – | ≥ 80 | ≥ 80 | ≥ 80 | ≥ 80
3 | CCN(C)/C=N/c1cc(OC)c(C(O)(COCC2CCC2)C(F)(F)F)cc1C (centres unmarked) [Q.004, N′-[4-[1-(cyclobutylmethoxymethyl)-2,2,2-trifluoro-1-hydroxy-ethyl]-5-methoxy-2-methyl-phenyl]-N-ethyl-N-methyl-formamidine] | – | ≥ 80 | ≥ 80 | ≥ 80 | ≥ 80
4 | CCN(C)/C=N/c1cc(OC)c(C(O)(COC2CCCC2)C(F)(F)F)cc1C (centres unmarked) [Q.005, N′-[4-[1-(cyclopentoxymethyl)-2,2,2-trifluoro-1-hydroxy-ethyl]-5-methoxy-2-methyl-phenyl]-N-ethyl-N-methyl-formamidine] | – | – | – | – | ≥ 80
5 | CCCCC(O)(c1cc(C)c(/N=C/N(C)C(C)C)cc1OC)C(F)(F)F (centres unmarked) [Q.007, N′-[4-[1-hydroxy-1-(trifluoromethyl)pentyl]-5-methoxy-2-methyl-phenyl]-N-isopropyl-N-methyl-formamidine] | – | ≥ 80 | ≥ 80 | ≥ 80 | ≥ 80

More lines, main results first:

Row | melting point [°C] | SMILES | pest or weed control at 200 ppm [1] [%] | pest or weed control at 200 ppm [2] [%] | pest or weed control at 200 ppm [3] [%] | pest or weed control at 200 ppm (Phakopsora pachyrhizi) [%]
6 | 90 to 93 | COc1cc(/N=C/N(C)C(C)C)c(C)cc1C(O)(C1CC1)C(F)(F)F (centres unmarked) [Q.003, N′-[4-(1-cyclopropyl-2,2,2-trifluoro-1-hydroxy-ethyl)-5-methoxy-2-methyl-phenyl]-N-isopropyl-N-methyl-formamidine] | ≥ 80 | ≥ 80 | ≥ 80 | ≥ 80
7 | 90 to 95 | C=C(C)CC(O)(c1cc(C)c(/N=C/N(C)C(C)C)cc1OC)C(F)(F)F (centres unmarked) [Q.006, N′-[4-[1-hydroxy-3-methyl-1-(trifluoromethyl)but-3-enyl]-5-methoxy-2-methyl-phenyl]-N-isopropyl-N-methyl-formamidine] | ≥ 80 | ≥ 80 | ≥ 80 | ≥ 80
8 | 110 to 111 | COc1cc(/N=C/N(C)C(C)C)c(C)cc1C(O)(c1ccccc1)C(F)(F)F (centres unmarked) [Q.008, N-isopropyl-N′-[5-methoxy-2-methyl-4-(2,2,2-trifluoro-1-hydroxy-1-phenyl-ethyl)phenyl]-N-methyl-formamidine] | – | ≥ 80 | ≥ 80 | ≥ 80
9 | 115 to 117 | CCN(C)/C=N/c1cc(OC)c(C(O)(c2ccccc2C)C(F)(F)F)cc1C (centres unmarked) [Q.009, N-ethyl-N′-[5-methoxy-2-methyl-4-[2,2,2-trifluoro-1-hydroxy-1-(o-tolyl)ethyl]phenyl]-N-methyl-formamidine] | ≥ 80 | ≥ 80 | ≥ 80 | ≥ 80
10 | 107 to 108 | CCN(C)/C=N/c1cc(OC)c(C(O)(c2cc(F)cc(F)c2)C(F)(F)F)cc1C (centres unmarked) [Q.010, N′-[4-[1-(3,5-difluorophenyl)-2,2,2-trifluoro-1-hydroxy-ethyl]-5-methoxy-2-methyl-phenyl]-N-ethyl-N-methyl-formamidine] | ≥ 80 | ≥ 80 | ≥ 80 | ≥ 80
